Reference: patent US20070128217A1 (priority 2003, published 2007)

Tests used:
[1] = tested on: antibodies in sera from SARS patients (sera 1a, 1b, 2, 6, 37, 62, London, SARS-yellow, SARS-green); format: binding, human; parameters: Binding of serum 6 to linear peptides of protein X1 of SARS-CoV Urbani / Binding of serum 37 to linear peptides of protein X1 of SARS-CoV Urbani / Binding of serum 6 to looped/cyclic peptide (PEPSCAN-ELISA) / Binding of serum 37 to looped/cyclic peptide (PEPSCAN-ELISA) / Binding of serum 37 to looped/cyclic peptides of protein X1 of SARS-CoV Urbani / Binding of serum 6 to linear peptides of protein X2 / Binding of serum 37 to linear peptides of protein X2 / Binding of serum 37 to looped/cyclic peptides of protein X2 of SARS-CoV Urbani / Binding of serum 6 to linear peptides of protein M of SARS-CoV Urbani / Binding of serum 37 to linear peptides of protein M of SARS-CoV Urbani / Binding of serum 6 to looped/cyclic peptides of protein M of SARS-CoV Urbani / Binding of serum 37 to looped/cyclic peptides of protein M of SARS-CoV Urbani / Binding of serum 6 to linear peptides of protein X3 of SARS-CoV Urbani / Binding of serum 37 to linear peptides of protein X3 of SARS-CoV Urbani / Binding of serum 37 to looped/cyclic peptides of protein X3 of SARS-CoV Urbani / Binding of serum 6 to linear peptides of protein X4 of SARS-CoV Urbani / Binding of serum 37 to linear peptides of protein X4 of SARS-CoV Urbani / Binding of serum 37 to looped/cyclic peptides of protein X4 of SARS-CoV Urbani / Binding of serum 6 to linear peptides of protein X5 of SARS-CoV Urbani / Binding of serum 37 to linear peptides of protein X5 of SARS-CoV Urbani / Binding of serum 37 to looped/cyclic peptides of protein X5 of SARS-CoV Urbani / Binding of serum 6 to linear peptides of protein N of SARS-CoV Urbani / Binding of serum 37 to linear peptides of protein N of SARS-CoV Urbani / Binding of serum 6 to linear peptide (PEPSCAN-ELISA) / Binding of serum 1a to looped/cyclic peptides of protein N of SARS-CoV Urbani / Binding of serum 1b to looped/cyclic peptides of protein N of SARS-CoV Urbani / Binding of serum 2 to looped/cyclic peptides of protein N of SARS-CoV Urbani / Binding of serum 6 to looped/cyclic peptides of protein N of SARS-CoV Urbani / Binding of serum 37 to looped/cyclic peptides of protein N of SARS-CoV Urbani / Binding of serum 62 to looped/cyclic peptides of protein N of SARS-CoV Urbani / Binding of serum London to looped/cyclic peptides of protein N of SARS-CoV Urbani / Binding of serum SARS-green to looped/cyclic peptides of protein N of SARS-CoV Urbani: unit not given here
[2] = tested on: rabbit serum obtained by immunizing a rabbit with the SARS-CoV strain Frankfurt 1; format: binding

Sequence: AVFQSATKIIALNKR
- Binding of serum 1a to linear peptides of protein X1 of SARS-CoV Urbani [1]: 0.8
- Binding of serum 1a to looped/cyclic peptide (PEPSCAN-ELISA) [1]: 0.4
- Binding of serum 1b to linear peptides of protein X1 of SARS-CoV Urbani [1]: 0.6
- Binding of serum 1b to looped/cyclic peptide (PEPSCAN-ELISA) [1]: 0.4
- Binding of serum 2 to linear peptides of protein X1 of SARS-CoV Urbani [1]: 0.6
- Binding of serum 2 to looped/cyclic peptide (PEPSCAN-ELISA) [1]: 0.6
- Binding of serum 6 to linear peptides of protein X1 of SARS-CoV Urbani [1]: 0.8
- Binding of serum 6 to looped/cyclic peptide (PEPSCAN-ELISA) [1]: 0.7
- Binding of serum 37 to linear peptides of protein X1 of SARS-CoV Urbani [1]: 0.7
- Binding of serum 37 to looped/cyclic peptide (PEPSCAN-ELISA) [1]: 0.6
- Binding of serum 62 to linear peptides of protein X1 of SARS-CoV Urbani [1]: 0.6
- Binding of serum 62 to looped/cyclic peptide (PEPSCAN-ELISA) [1]: 0.6
- Binding of serum London to linear peptides of protein X1 of SARS-CoV Urbani [1]: 0.3
- Binding of serum London to looped/cyclic peptide (PEPSCAN-ELISA) [1]: 0.9
- Binding of serum SARS-green to linear peptides of protein X1 of SARS-CoV Urbani [1]: 0.3
- Binding of serum SARS-green to looped/cyclic peptide (PEPSCAN-ELISA) [1]: 0.2
- Binding of serum SARS-yellow to linear peptides of protein X1 of SARS-CoV Urbani [1]: 0.5
- Binding of serum SARS-yellow to looped/cyclic peptide (PEPSCAN-ELISA) [1]: 0.4
- Recognition of the peptide by the rabbit serum [2]: recognized

Sequence: FQSATKIIALNKRWQ
- Binding of serum 1a to linear peptides of protein X1 of SARS-CoV Urbani [1]: 0.8
- Binding of serum 1a to looped/cyclic peptide (PEPSCAN-ELISA) [1]: 0.5
- Binding of serum 1b to linear peptides of protein X1 of SARS-CoV Urbani [1]: 0.6
- Binding of serum 1b to looped/cyclic peptide (PEPSCAN-ELISA) [1]: 0.3
- Binding of serum 2 to linear peptides of protein X1 of SARS-CoV Urbani [1]: 0.6
- Binding of serum 2 to looped/cyclic peptide (PEPSCAN-ELISA) [1]: 0.4
- Binding of serum 6 to linear peptides of protein X1 of SARS-CoV Urbani [1]: 0.6
- Binding of serum 6 to looped/cyclic peptide (PEPSCAN-ELISA) [1]: 0.5
- Binding of serum 37 to linear peptides of protein X1 of SARS-CoV Urbani [1]: 0.7
- Binding of serum 37 to looped/cyclic peptide (PEPSCAN-ELISA) [1]: 0.5
- Binding of serum 62 to linear peptides of protein X1 of SARS-CoV Urbani [1]: 0.7
- Binding of serum 62 to looped/cyclic peptide (PEPSCAN-ELISA) [1]: 0.5
- Binding of serum London to linear peptides of protein X1 of SARS-CoV Urbani [1]: 0.3
- Binding of serum London to looped/cyclic peptide (PEPSCAN-ELISA) [1]: 0.2
- Binding of serum SARS-green to linear peptides of protein X1 of SARS-CoV Urbani [1]: 0.4
- Binding of serum SARS-green to looped/cyclic peptide (PEPSCAN-ELISA) [1]: 0.3
- Binding of serum SARS-yellow to linear peptides of protein X1 of SARS-CoV Urbani [1]: 0.4
- Binding of serum SARS-yellow to looped/cyclic peptide (PEPSCAN-ELISA) [1]: 0.2
- Recognition of the peptide by the rabbit serum [2]: recognized

Sequence: IALNKRWQLALYKGF
- Binding of serum 1a to linear peptides of protein X1 of SARS-CoV Urbani [1]: 0.8
- Binding of serum 1a to looped/cyclic peptide (PEPSCAN-ELISA) [1]: 0.5
- Binding of serum 1b to linear peptides of protein X1 of SARS-CoV Urbani [1]: 0.7
- Binding of serum 1b to looped/cyclic peptide (PEPSCAN-ELISA) [1]: 0.4
- Binding of serum 2 to linear peptides of protein X1 of SARS-CoV Urbani [1]: 0.6
- Binding of serum 2 to looped/cyclic peptide (PEPSCAN-ELISA) [1]: 0.5
- Binding of serum 6 to linear peptides of protein X1 of SARS-CoV Urbani [1]: 0.9
- Binding of serum 6 to looped/cyclic peptide (PEPSCAN-ELISA) [1]: 0.4
- Binding of serum 37 to linear peptides of protein X1 of SARS-CoV Urbani [1]: 0.7
- Binding of serum 37 to looped/cyclic peptide (PEPSCAN-ELISA) [1]: 0.5
- Binding of serum 62 to linear peptides of protein X1 of SARS-CoV Urbani [1]: 0.7
- Binding of serum 62 to looped/cyclic peptide (PEPSCAN-ELISA) [1]: 0.7
- Binding of serum London to linear peptides of protein X1 of SARS-CoV Urbani [1]: 0.3
- Binding of serum London to looped/cyclic peptide (PEPSCAN-ELISA) [1]: 0.3
- Binding of serum SARS-green to linear peptides of protein X1 of SARS-CoV Urbani [1]: 0.4
- Binding of serum SARS-green to looped/cyclic peptide (PEPSCAN-ELISA) [1]: 0.4
- Binding of serum SARS-yellow to linear peptides of protein X1 of SARS-CoV Urbani [1]: 0.5
- Binding of serum SARS-yellow to looped/cyclic peptide (PEPSCAN-ELISA) [1]: 0.6
- Recognition of the peptide by the rabbit serum [2]: recognized
